The values that follow come from ChEMBL document CHEMBL3046080, “Synthesis of imidazole-derived steroidal hybrids as potent aromatase inhibitors” (Med Chem Res, 2013).

For one data set, the target named is T1, Aromatase (Homo sapiens, UniProt P11511).
T1 sequence (P11511 whole entry): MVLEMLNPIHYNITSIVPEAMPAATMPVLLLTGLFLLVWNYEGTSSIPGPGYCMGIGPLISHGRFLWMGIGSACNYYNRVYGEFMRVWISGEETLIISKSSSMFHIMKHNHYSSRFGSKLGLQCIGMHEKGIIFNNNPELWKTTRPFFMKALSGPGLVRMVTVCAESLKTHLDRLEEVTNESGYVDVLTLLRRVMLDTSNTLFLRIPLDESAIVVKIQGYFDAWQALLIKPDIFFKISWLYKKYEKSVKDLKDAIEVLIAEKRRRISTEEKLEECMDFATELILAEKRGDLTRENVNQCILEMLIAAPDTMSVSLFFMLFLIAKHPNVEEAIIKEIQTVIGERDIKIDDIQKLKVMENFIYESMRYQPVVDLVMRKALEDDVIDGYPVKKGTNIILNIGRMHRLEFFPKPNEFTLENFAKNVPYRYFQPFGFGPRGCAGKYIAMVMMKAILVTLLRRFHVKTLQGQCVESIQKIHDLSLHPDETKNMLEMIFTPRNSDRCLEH
Set-up: species or system Placenta, Microsome.

Data set [1] concerns the target T2, aromatase (CYP19) (Homo sapiens, UniProt P11511).
T2 sequence (P11511 whole entry): T1 sequence (P11511 whole entry)
The data set can be described thus: Inhibition of aromatase in Homo sapiens (human) placental microsome assessed as tritiated H2O release from [1-beta-3H] androstenedione substrate at 5 uM preincubated with substrate for 5 min prior to enzyme addition measured after 20 min by beta-scintillation counting analysis. Set-up: species or system Placenta. As to conditions: placental microsomes, probe [1-beta-3H] androstenedione.

Data set [2] deals with T2, aromatase (CYP19). Kind of data set: Inhibition of aromatase in Homo sapiens (human) placental microsome assessed as tritiated H2O release from [1-beta-3H] androstenedione substrate at 36 uM preincubated with substrate for 5 min prior to enzyme addition measured after 20 min by beta-scintillation counting analysis. Also on record: species or system Placenta. To be noted: placental microsomes, probe [1-beta-3H] androstenedione.

On Aromatase, `C[C@]12CCC(=O)C=C1CC[C@@H]1[C@@H]2CC[C@]2(C)C(=O)/C(=C/c3ccc(OCCCn4ccnc4)cc3)C[C@@H]12` yielded an IC50 of 11.9 µM.

Regarding `C[C@]12CC[C@H](O)CC1=CC[C@@H]1[C@@H]2CC[C@]2(C)C(=O)/C(=C/c3ccc(OCCCn4ccnc4)cc3)C[C@@H]12`, the inhibition at 20 min, 5 µM on aromatase (CYP19) [1] was 4.1%.

Regarding `C[C@]12CC[C@H](O)CC1=CC[C@@H]1[C@@H]2CC[C@]2(C)C(=O)/C(=C/c3ccc(OCCCCl)cc3)C[C@@H]12`, at aromatase (CYP19) [1], the inhibition at 20 min, 5 µM worked out at 0.2%.

For `CC(=O)O[C@H]1CC[C@@]2(C)C(=CC[C@@H]3[C@@H]2CC[C@]2(C)C(=O)/C(=C/c4cccc(OCCCn5ccnc5)c4)C[C@@H]32)C1`, the inhibition at 20 min, 36 µM at aromatase (CYP19) [2] was 38%.

On to `CC(=O)O[C@H]1CC[C@@]2(C)C(=CC[C@H]3[C@@H]4C/C(=C\c5cccc(OCCCn6ccnc6)c5)[C@H](OC(C)=O)[C@@]4(C)CC[C@@H]32)C1`, for which, on aromatase (CYP19) [2], the inhibition at 20 min, 36 µM worked out at 34%.

On Aromatase, `C[C@]12CC[C@H]3[C@@H](CC=C4C[C@@H](O)CC[C@@]43C)[C@@H]1C/C(=C\c1cccc(OCCCn3ccnc3)c1)[C@@H]2O` had an IC50 of 9.1 µM.

Regarding `C[C@]12CC[C@H](O)CC1=CC[C@@H]1[C@@H]2CC[C@]2(C)C(=O)/C(=C/c3cccc(OCCCn4ccnc4)c3)C[C@@H]12`, the inhibition at 20 min, 36 µM on aromatase (CYP19) [2] was found to be 34%.
